Here are results for eight compounds from patent US20050002859A1, “COX-2-targeted imaging agents” (Vanderbilt University, priority 2003, published 2005).

Positions count from the first letter of the chain named. Read-outs that look alike come from different tables or passages of the source. Bounds are passed on as bounds.

Data set [1] has as its system rat carageenan footpad edema. Nature of the data set: Rat carageenan footpad edema model. The data set is classed as in vivo. As to the method:
The first is the rat carageenan footpad model. Maximal edema is obtained in this model 3 hours after carageenan injection.

The subject of data set [2] is PGE2 in pouch exudate (COX-2 activity). The following applies: cited from earlier work.
Data set [3] deals with serum thromboxane B2 (COX-1 activity). The following applies: cited from earlier work.
Data set [4] concerns the target T1, COX-2 (Homo sapiens, UniProt P35354).
T1 sequence (P35354 18-604): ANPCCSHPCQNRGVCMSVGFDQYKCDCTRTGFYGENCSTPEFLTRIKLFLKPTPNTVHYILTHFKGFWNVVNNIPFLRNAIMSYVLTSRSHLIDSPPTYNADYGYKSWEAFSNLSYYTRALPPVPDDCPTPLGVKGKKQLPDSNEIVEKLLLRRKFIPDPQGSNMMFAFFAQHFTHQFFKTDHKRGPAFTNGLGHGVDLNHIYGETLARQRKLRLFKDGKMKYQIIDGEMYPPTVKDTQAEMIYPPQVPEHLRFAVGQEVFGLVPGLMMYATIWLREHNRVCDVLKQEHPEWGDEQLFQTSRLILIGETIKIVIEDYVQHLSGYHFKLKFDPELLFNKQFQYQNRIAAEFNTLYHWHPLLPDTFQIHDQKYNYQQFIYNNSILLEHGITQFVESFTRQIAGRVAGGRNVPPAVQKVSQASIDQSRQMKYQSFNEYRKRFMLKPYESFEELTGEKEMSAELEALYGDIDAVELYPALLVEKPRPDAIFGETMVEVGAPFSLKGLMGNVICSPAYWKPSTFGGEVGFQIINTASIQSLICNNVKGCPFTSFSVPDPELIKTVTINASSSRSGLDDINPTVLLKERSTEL
The following applies: cited from earlier work.

The next data set relates to Sprague-Dawley rats. Briefly: 14-day daily oral toxicity in Sprague-Dawley rats. The data set is classed as in vivo. The following applies: daily oral 100 mg/kg, at 14 days.
Another data set concerns gastric lesions. Conditions: rat, in vivo, 100 mg/kg.
The target in a further data set is T2, S516A mutant of COX-2 (Homo sapiens, UniProt P35354, S516A).
T2 sequence (P35354 18-604 S516A): T1 sequence (P35354 18-604) with S499A
The following applies: cited from earlier work.

Data set [5] has as its target T3, COX-2 activity in RAW 264.7 murine macrophage cell line (Mus musculus, UniProt Q05769).
T3 construct: The macrophages were exposed to lipopolysaccharide and γ-interferon to induce COX-2; endogenous in cells
T3 sequence (Q05769 18-604): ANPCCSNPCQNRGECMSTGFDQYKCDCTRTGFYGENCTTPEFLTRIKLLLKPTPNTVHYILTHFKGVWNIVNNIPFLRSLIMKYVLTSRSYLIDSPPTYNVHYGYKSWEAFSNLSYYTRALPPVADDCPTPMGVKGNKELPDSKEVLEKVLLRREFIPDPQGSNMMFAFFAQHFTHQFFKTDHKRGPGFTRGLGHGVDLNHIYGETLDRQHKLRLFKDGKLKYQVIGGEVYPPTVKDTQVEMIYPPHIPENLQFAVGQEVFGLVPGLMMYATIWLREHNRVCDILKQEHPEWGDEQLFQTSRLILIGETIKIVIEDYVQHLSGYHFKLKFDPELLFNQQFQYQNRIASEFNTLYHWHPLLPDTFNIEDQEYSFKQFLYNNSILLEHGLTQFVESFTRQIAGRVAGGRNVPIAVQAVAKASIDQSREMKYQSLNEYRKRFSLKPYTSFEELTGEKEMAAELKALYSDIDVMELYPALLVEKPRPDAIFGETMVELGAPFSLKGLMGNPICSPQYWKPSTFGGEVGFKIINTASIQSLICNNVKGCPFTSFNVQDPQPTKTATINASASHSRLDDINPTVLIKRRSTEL
The following applies: LPS-activated RAW 264.7; exogenous arachidonic acid; read-out: IC50 for inhibition of PGD2 synthesis; cited from earlier work.

The next data set has as its system HCA-7 colon cancer cells. Conditions: HCA-7 cells, express high levels of COX-2; read-out: IC50 growth in soft agar; cited from earlier work.
For data set [6], the system named is HCT-15 colon cancer cells. The following applies: HCT-15 cells, do not express COX-2; cited from earlier work.
Data set [7] concerns the target T1, COX-2. Nature of the data set: Inhibition of purified COX-2 by NSAID derivatives (species not stated). Conditions: purified COX-2. The format is biochemical. The method, then: (§1) While the TLC assay described above provides considerable information, it is labor-intensive for screening large numbers of candidate NSAID derivatives. Accordingly, as an alternative, a simplified assay can be used. Incubation conditions can be essentially as described above, except all candidate derivatives are first screened at a concentration of 1 mM with a preincubation time of 30 minutes. The substrate need not be radiolabeled, and the reaction can be stopped by the addition of 2 μL of formic acid. Product formation can be quantitated by enzyme-linked immunosorbent assay (ELISA) using commercially available kits. […] Other in vitro assay methods for screening NSAID derivatives for activity (e.g., selectivity for the COX-2 enzyme) can also be used by the skilled artisan.

Data set [8] concerns the target T4, COX-1 (Ovis aries, UniProt P05979).
T4 sequence (P05979 25-600): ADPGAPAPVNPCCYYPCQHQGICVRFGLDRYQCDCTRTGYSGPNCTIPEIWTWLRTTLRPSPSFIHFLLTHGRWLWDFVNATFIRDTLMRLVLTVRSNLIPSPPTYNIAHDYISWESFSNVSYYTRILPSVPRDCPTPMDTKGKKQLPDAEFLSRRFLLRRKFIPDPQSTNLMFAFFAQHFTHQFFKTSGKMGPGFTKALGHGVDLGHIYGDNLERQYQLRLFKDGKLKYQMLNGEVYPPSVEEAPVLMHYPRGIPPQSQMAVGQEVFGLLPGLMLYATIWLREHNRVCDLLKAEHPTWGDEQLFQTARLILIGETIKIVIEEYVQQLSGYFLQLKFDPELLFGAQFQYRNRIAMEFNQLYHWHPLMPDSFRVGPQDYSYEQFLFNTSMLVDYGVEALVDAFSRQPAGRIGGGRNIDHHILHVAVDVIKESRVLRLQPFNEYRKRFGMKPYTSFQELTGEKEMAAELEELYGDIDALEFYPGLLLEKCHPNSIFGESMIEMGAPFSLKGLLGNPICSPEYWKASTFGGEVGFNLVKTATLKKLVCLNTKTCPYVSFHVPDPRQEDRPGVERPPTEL
Nature of the data set: Inhibition of COX-1 by NSAID derivatives (species not stated). The data set is classed as biochemical. The method, then: as §1

Data set [9] concerns the target T3, COX-2 activity in RAW 264.7 murine macrophage cell line. Briefly: Inhibition of COX-2 activity (PGD2 synthesis) in activated RAW264.7 macrophages. The format is cell-based. An excerpt:
Thus, NSAID derivatives that are identified as potentially useful in the methods described herein can be further tested using, for example, the RAW264.7 murine macrophage cell line. These cells are readily available (for example, from the American Type Culture Collection, Manassas, Va., United States of America) and are easily cultured in large numbers. They normally express low levels of COX-1 and very low to undetectable levels of COX-2. Upon exposure to bacterial lipopolysaccharide (LPS), however, COX-2 levels increase dramatically over the ensuing 24 hour period, and the cells produce PGD2 and PGE2 from endogenous arachidonic acid stores (generally, ˜1 nmol/10^7 cells total PG formation). After LPS exposure, the addition of exogenous arachidonic acid results in the formation of additional PGD2 and PGE2 as a result of metabolism by the newly synthesized COX-2.
This system provides a number of approaches for testing the inhibitory potency of COX-2-selective ligands (e.g., inhibitors). In general, following LPS activation, cells can be treated for 30 minutes with the desired concentrations of candidate derivative(s) in DMSO. ^14C-arachidonic acid can be added, and the cells can be incubated for 15 minutes at 37° C. Product formation can be assessed following extraction and TLC separation of the culture medium. Alternatively, the effects of candidate derivatives on PG synthesis from endogenous arachidonic acid can be assessed by incubating cells with desired concentrations of candidate derivatives 30 minutes prior to LPS exposure. Following a 24 hour incubation, medium can be collected and extracted, and the amount of PGD2 and/or PGE2 can be assayed by gas chromatography-mass spectrometry, liquid chromatography-mass spectrometry, or ELISA.
Inhibition of COX-2 Activity in Activated RAW264.7. Protocols for COX-2 inhibition in RAW264.7 cells have been previously described (Kalgutkar et al., 1998b). Briefly, cells (6.2×10^6 cells/T25 flask) were activated with lipopolysaccharide (1 μg/mL) and γ-interferon (10 U/mL) in serum-free DMEM for 7 hours and then treated with inhibitor (0-2 μM) for 30 minutes at 37° C. Exogenous arachidonate metabolism was determined by adding [1-^14C]-arachidonate acid (20 μM) for 15 minutes at 37° C. IC50 values are the average of two independent determinations.
The macrophages were exposed to lipopolysaccharide and γ-interferon to induce COX-2 and then treated with several concentrations of Compound 355.

Data set [10] deals with T1, COX-2. Briefly: biochemical.
Description: (§2) One example of an in vitro screening method takes advantage of the fact that both human and murine recombinant COX-2 can be expressed and isolated in pure form from an Sf-9 cell expression system. Briefly, typical assays involve the incubation of COX-1 (44 nM) or COX-2 (66 nM) in a 200 μL reaction mixture containing 100 mM Tris-HCl, pH 8.0, 500 μM phenol and 50 μM ^14C-arachidonic acid (55 mCi/mmol) for 30 seconds at 37° C. […] The reaction is stopped by the addition of 200 μL of ethanol/methanol/1 M citrate, pH 4.0 (30:4:1). The extracted products are separated by thin layer chromatography (TLC), which allows quantitation of total product formation as well as assessment of product distribution. This assay is useful to define IC50 values for inhibition of either enzyme, and to determine time-dependency of inhibition. It also provides information concerning changes in products formed as a result of inhibition.
(§3) Apoenzyme was reconstituted by the addition of hematin to the assay mixtures. Human COX-2 was expressed in Sf9 insect cells by means of the pVL 1393 expression vector (BD Biosciences Pharmingen, San Diego, Calif., United States of America) and purified by ion exchange and gel filtration chromatography. […]
(§4) IC50 values for the inhibition of purified human COX-2 or ovine COX-1 by test compounds were determined by thin layer chromatography (TLC) radiography. […]
Another data set addresses T5, ovine COX-1 (Ovis aries, UniProt P05979).
T5 sequence (P05979 25-600): T4 sequence (P05979 25-600)
Nature of the data set: Inhibition of purified ovine COX-1, TLC assay.

The target of data set [11] is T4, COX-1. Conditions: cited from earlier work.
The mark [12] stands for this setting: Rattus norvegicus, po, maximal edema 3 hours after carageenan injection, read-out: ED50 inhibition of edema formation.
Setting [13] is: activated RAW 264.7 cells, read-out: IC50 for inhibition of PGD2 synthesis/production.

Description for ovine COX-1: as §2, §3, §4

Turning to `COc1ccc2c(c1)c(CC(=O)O)c(C)n2C(=O)c1ccc(Cl)cc1` [indomethacin], in data set [1] (rat carageenan footpad model (Example 14), read-out: ED50), the ED50 worked out at 2 mg/kg. For the same compound, in data set [2] (2 mg/kg dose), the “reduction of PGE2 levels” value is 100%. Further, the “reduction of TXB2 levels” value in data set [3] (2 mg/kg dose) is 90%.

Consider `CSc1ccccc1OC(C)=O` [o-(Acetoxyphenyl)methyl sulfide], for which the “inhibitory potency and selectivity for COX-2” value at COX-2 [4] is “moderate”.

With `CCCCC#CCSc1ccccc1OC(C)=O` [APHS, o-(acetoxyphenyl)hept-2-ynyl sulfide], the ED50 in data set [1] (setting [12]) was found to be 6 mg/kg. For the same compound, the “toxicities by gross or histopathological evaluation” value in the data set with Sprague-Dawley rats was “no detectable toxicities”. In the data set on gastric lesions, the gastric toxicity result is recorded as “no gastric toxicity”. Moreover, on COX-2 [4], the “selectivity for COX-2 relative to aspirin” value was 100 times and the “time to complete inactivation of COX-2” value is recorded as at most 30 min. Besides, on COX-2 [4] (irreversible inactivation of COX-2), the kinact/Ki was around 3000 M⁻¹ s⁻¹. For the same compound, on S516A mutant of COX-2, the “inhibitory effect on S516A mutant of COX-2” value was “resistant”. Also, the IC50 in [5] is 120 nM. In addition, the IC50 in the data set on HCA-7 colon cancer cells was 2000 nM. Moreover, the effect on growth result in [6] is reported as “no effect”. The “reduction of PGE2 levels in pouch exudate” value in data set [2] (dose of 5 mg/kg) is listed as 95%. Moreover, the “reduction of pouch PGE2 levels” value in data set [2] (dose of 50 mg/kg) is recorded as 100%. Besides, the “effect on serum TXB2 levels” value in [3] (dose of 5 mg/kg) is listed as “no effect”. The “reduction of serum TXB2 levels” value in data set [3] (dose of 50 mg/kg) is on record as 11%.

`O=C(c1ccccc1)c1ccc2n1CCC2C(=O)NCc1ccc(F)cc1` (stereo not shown) [Compound 19, p-fluorobenzyl derivative of ketorolac amide]: the IC50 was 80 nM against COX-2 [7], above 65000 nM against COX-1 [8] and 200 nM in [9] (setting [13]).

As for `COc1ccc2c(c1)c(CC(=O)NCCOC(=O)c1cc(I)cc(I)c1I)c(C)n2C(=O)c1ccc(Cl)cc1` [Compound 5], the IC50 on COX-2 [7] was 50 nM; on COX-1 [8], above 50000 nM; in data set [9] (read-out: IC50 for inhibition of COX-2 activity in RAW 264.7 macrophages), 3500 nM.

For the compound `COc1ccc2c(c1)c(CC(=O)NCCNC(=O)c1ccc(F)cc1)c(C)n2C(=O)c1ccc(Cl)cc1` [Compound 355, N-(2-{2-[1-(4-Chloro-benzoyl)-5-methoxy-2-methyl-1H-indol-3-yl]-acetylamino}-ethyl)-4-fluoro-benzamide], the IC50 in data set [9] (setting [13]) was 500 nM; at COX-2 [10] it was 103 nM; against ovine COX-1, above 60000 nM.

For the compound `CC(=O)Oc1ccccc1C(=O)O` [aspirin], the ED50 in data set [1] (setting [12]) amounted to 125 mg/kg. In addition, at COX-1 [11], the “potency against COX-1 relative to COX-2” value is listed as 10-100 times.

As to `COc1ccc2c(c1)c(CC(=O)Nc1ccc(F)cc1)c(C)n2C(=O)c1ccc(Cl)cc1F` [Compound 360, 2-[1-(4-Chloro-2-fluoro-benzoyl)-5-methoxy-2-methyl-1H-indol-3-yl]-N-(4-fluoro-phenyl)-acetamide], the IC50 against COX-2 [10] is 100 nM; against ovine COX-1, above 60000 nM.

In general, ED50 refers to the dose at which the effect has come halfway, by size or by number of responders.
